Data: article PMC12186263, “Molecular Basis for Peptide Nitration by a Novel Cytochrome P450 Enzyme in RiPP Biosynthesis” (ACS Catalysis, 2025)

Assays:
RufO [1] = biological target: T1, RufO (Streptomyces atratus, UniProt A0A224AU14); conditions: recent report, ref number not given; cited from earlier work
T1 construct: made in house
T1 sequence (A0A224AU14 1-394): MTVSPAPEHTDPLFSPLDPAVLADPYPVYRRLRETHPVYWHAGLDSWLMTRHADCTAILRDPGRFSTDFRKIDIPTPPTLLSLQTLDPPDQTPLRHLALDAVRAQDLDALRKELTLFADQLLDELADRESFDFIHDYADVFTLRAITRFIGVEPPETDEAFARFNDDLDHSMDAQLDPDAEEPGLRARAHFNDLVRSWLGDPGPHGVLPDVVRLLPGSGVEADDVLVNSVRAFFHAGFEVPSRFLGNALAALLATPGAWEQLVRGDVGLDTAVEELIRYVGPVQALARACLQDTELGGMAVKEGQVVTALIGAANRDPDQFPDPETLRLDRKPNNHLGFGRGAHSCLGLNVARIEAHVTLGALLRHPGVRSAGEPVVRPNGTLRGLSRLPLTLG
Text: The integration of spectroscopic and structural characterization allows us to elucidate the molecular mechanism of substrate recognition and nitration activity in RufO. Our findings provide important insights into the catalytic process, enabling us to propose a mechanistic model for RufO-mediated peptide nitration (Figure S13). In its resting state, RufO adopts a six-coordinate, low-spin heme configuration with a water molecule as the distal ligand. While its heme environment is spectroscopically similar to that of typical CYPs, the flexibility of the B/C loop and the F and G helices contribut ...

ferrous RufO = assay: Stopped-flow transient kinetics of O2 and •NO binding to ferrous RufO; conditions: for association rate constant k1: 3.3 μM ferrous RufO; for association rate constant k1 / dissociation rate constant k2 (y-intercept): pH 8.0, linear fit
Description: 5 Transient kinetics of ferrous RufO binding to O2 and ^•NO. Spectral changes following the rapid mixing of 3.3 μM ferrous RufO bound to MRYLH with (A) 18 μM O2 and (C) 70 μM ^•NO over 0.2 s. The black-to-red spectral transitions represent the formation of (A) a ferric-superoxo intermediate and (C) a ferrous-nitrosyl complex. Insets show the time-dependent absorbance changes at 438 nm (the most pronounced shift), fitted using single exponential equations to determine rate constants (red trace). Dependence of rate constant as a function of gas concentration on (B) O2 and (D) ^•NO binding to ferrous RufO alone (blue) and peptide-bound RufO (red). Second-order rate constants were determined through linear fitting. TEXT PRINTED IN THE PICTURE: (A) + O2: kobs = 74.3 s^-1 | (B) RufO alone: k1 = 3.55 μM^-1 s^-1 | (B) peptide-bound: k1 = 3.83 μM^-1 s^-1 | (C) + •NO: kobs = 107.4 s^-1 | (D) RufO alone: k1 = 4.12 μM^-1 s^-1 | (D) peptide-bound: k1 = 2.35 μM^-1 s^-1
Stopped-flow spectroscopic data were collected using an Applied Photophysics SX20 stopped-flow system equipped with a photodiode array detector. The system was maintained in an anaerobic chamber (O2 < 1 ppm) and all sample preparation was done anaerobically. Measurements were performed at 4 °C. All samples were prepared in a buffer containing 50 mM Tris-HCl and 100 mM NaCl, pH 8.0. RufO was prereduced with a minimal amount of sodium dithionite. The final mixed concentrations of RufO and MRYLH (where applicable) were 3.3 and 24 μM, respectively. Solutions of varying O2 concentrations were prepared by diluting air-saturated buffer with anaerobic buffer. The concentrations of O2 in the air-saturated buffer were measured with an Oxygraph+ oxygen electrode (Hansatech). To generate ^•NO-containing solutions, 0.5 mM DEA NONOate (≥98%, Cayman Chemical) was incubated in anaerobic buffer for 4 h to ensure complete ^•NO release. The ^•NO concentrations were quantified based on a hemoglobin assay, and further dilutions were made with anaerobic buffer immediately prior to mixing. Experimental data were analyzed by the ProK software package from Applied Photophysics. The second-order rate constants were obtained from linear fitting, with the resulting equations: y = 3.55x + 54.4 for the mixing of RufO with O2, y = 3.83x + 6.5 for the ES complex with O2, y = 4.12x −158.0 for RufO with ^•NO, and y = 2.35x – 58.9 for the ES complex with ^•NO.
Figure S9. Transient kinetics of ferrous RufO alone binding to O2 and •NO Spectral changes following the rapid mixing of 3.3 μM ferrous RufO with (A) 18 μM O 2 and […] superoxo intermediate and (B) a ferrous-nitrosyl complex. Insets show the time-dependent absorbance changes at 438 nm (the most pronounced shift), fitted using first-order exponential equations to determine rate constants (red trace).
(1 picture or pasted object on this page, not shown here)

RufO [2] = biological target: T1, RufO; assay: LC-MS of single-turnover RufO reaction with sequential O2 and •NO addition; type: biochemical; conditions: 100 μM pre-reduced RufO, 150 μM MRYLH, 150 μM O2 30 s then 150 μM •NO 30 s, 50 mM ammonium acetate pH 7.5
TxtE = biological target: T2, TxtE (Streptomyces scabiei, UniProt C9ZDC6); conditions: Trp-bound TxtE; reported, ref number not given; cited from earlier work
T2 sequence (C9ZDC6 1-406): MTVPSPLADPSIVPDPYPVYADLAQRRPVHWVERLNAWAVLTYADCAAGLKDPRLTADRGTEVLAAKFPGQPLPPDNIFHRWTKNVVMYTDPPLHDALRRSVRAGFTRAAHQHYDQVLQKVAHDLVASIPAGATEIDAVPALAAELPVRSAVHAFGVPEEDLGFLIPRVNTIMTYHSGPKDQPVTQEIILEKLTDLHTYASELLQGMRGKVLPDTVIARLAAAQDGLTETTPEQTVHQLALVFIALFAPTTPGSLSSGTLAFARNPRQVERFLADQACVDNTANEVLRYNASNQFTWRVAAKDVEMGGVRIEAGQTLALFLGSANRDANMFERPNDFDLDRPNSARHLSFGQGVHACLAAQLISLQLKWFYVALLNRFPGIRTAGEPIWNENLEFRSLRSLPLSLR

RufO [3] = biological target: T1, RufO; conditions: spectroscopic and structural analyses; ref number not given; cited from earlier work
Text: Recent studies on a nitrating CYP have showcased collective efforts to uncover a novel enzymatic function in RiPP biosynthesis. Nitration is a biologically significant transformation that modifies the function, stability, and reactivity of proteins and other biomolecules. − While most biological nitration processes are known to proceed through less specific reactions involving peroxynitrite and other nitrative reactive species, , biocatalytic nitration is rare and underexplored. The first example was reported for TxtE in thaxtomin biosynthesis, which catalyzes the direct nitration of L-trypto ...

[4] = peptide-bound ferrous RufO + O2, 4 °C, pH 8.0

Q: With MRFLH as the molecule, how does the “nitration by RufO, in words” value (RufO [1]) read?
A: RufO cannot nitrate

Q: With `O=O` [O2] as the molecule, how does the kobs (ferrous RufO; MRYLH-bound ferrous RufO 3.3 μM, 18 μM O2, 438 nm, single exponential, 4 °C) read?
A: 74.3 s⁻¹

Q: What about the “association rate constant k1” value (ferrous RufO; MRYLH-bound, 24 μM MRYLH, 4 °C) of the same molecule?
A: 3.83 μM^–1 s^–1

Q: And the “association rate constant k1” value (ferrous RufO; RufO alone, 4 °C)?
A: 3.55 μM^–1 s^–1

Q: And the “dissociation rate constant k2 (y-intercept)” value (ferrous RufO; RufO alone, 4 °C)?
A: 54.4 s^–1

Q: What about the “O2 binding faster than •NO (times)” value (ferrous RufO; in the presence of the peptide, ratio of k1) of the same molecule?
A: 1.6 times

Q: And the “dissociation rate constant k2 (y-intercept)” value (ferrous RufO; peptide-bound RufO, 4 °C)?
A: 6.5 s^–1

Q: And the “ferric-superoxo intermediate stable for up to” value (ferrous RufO; [4])?
A: up to 100 s

Q: And the “time of peak of ferric-superoxo intermediate” value (ferrous RufO; [4])?
A: approximately 0.05 s

Q: And the “product yield, O2-first vs reverse order” value (RufO [2])?
A: approximately double the product yield

Q: And the “k1 of O2 binding” value (TxtE)?
A: 4.43 μM^–1 s^–1

Q: With `N[C@@H](Cc1ccc(O)cc1)C(=O)O` [Tyr, L-tyrosine] as the molecule, how does the “binding to RufO, in words” value (RufO [3]) read?
A: unable to bind
